By EC50 is commonly meant the concentration that produces a half-maximal response. A higher EC50 goes with lower potency in that assay.

The target of assay [1] is T1, M71 odorant receptor (Mus musculus, UniProt Q60893).
T1 sequence (Q60893 1-309): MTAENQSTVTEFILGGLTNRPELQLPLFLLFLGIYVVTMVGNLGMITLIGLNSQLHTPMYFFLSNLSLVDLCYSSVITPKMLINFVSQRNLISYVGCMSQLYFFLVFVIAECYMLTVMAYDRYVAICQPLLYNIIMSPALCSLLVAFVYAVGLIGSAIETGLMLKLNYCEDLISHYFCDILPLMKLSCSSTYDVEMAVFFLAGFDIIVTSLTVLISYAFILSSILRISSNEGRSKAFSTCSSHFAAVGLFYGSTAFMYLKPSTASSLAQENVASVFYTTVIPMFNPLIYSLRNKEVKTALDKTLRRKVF
Further details: gene Or8a1.

The target in assay [2] is T1, M71 odorant receptor. The assay can be described thus: patch clamp of dendritic knobs of M71- or M71::GFP-expressing olfactory sensory neurons, dose response. Format: cell-based. Further details: gene Or8a1; full-length M71 and M71::GFP C-terminal fusion expressed in olfactory sensory neurons. In general terms: In patch-clamp work, channel activity is measured electrically.

On to `CCc1occc(=O)c1O` [eMLT, ethyl maltol], for which, in assay [1], the “patch clamp of dendritic knobs of olfactory sensory neurons, peak current at 10” value was “olfactory neurons expressing either M71 or M71::GFP are activated by M71 specific ligands”.
With `CC(=O)c1ccccc1N` [2aACP, 2-amino acetophenone], the half-maximal effective concentration (EC50) in assay [2] amounted to 650 ± 80 nM.

The record behind these values is article PMC4626375, “In Vitro Mutational and Bioinformatics Analysis of the M71 Odorant Receptor and Its Superfamily” (PLoS ONE, 2015).
